Key:
PGl2 receptor = biological target: T1, PGl2 receptor (Homo sapiens, UniProt P43119); test: Inhibitory activity on binding of ^3 H-iloprost to PGl2 receptor on human blood platelet membrane fraction; conditions: human blood platelet membrane fraction (0.3 mg protein), 10 nM [^3 H]-iloprost, pH 7.4, 24° C., 30 min; read-out: IC50 (inhibition of [^3 H]-iloprost binding to PGl2 receptor)
T1 construct: human blood platelet membrane fraction (0.3 mg protein) was added; from tissue; host or cells: human blood platelets (membrane fraction)
T1 sequence (P43119 whole entry): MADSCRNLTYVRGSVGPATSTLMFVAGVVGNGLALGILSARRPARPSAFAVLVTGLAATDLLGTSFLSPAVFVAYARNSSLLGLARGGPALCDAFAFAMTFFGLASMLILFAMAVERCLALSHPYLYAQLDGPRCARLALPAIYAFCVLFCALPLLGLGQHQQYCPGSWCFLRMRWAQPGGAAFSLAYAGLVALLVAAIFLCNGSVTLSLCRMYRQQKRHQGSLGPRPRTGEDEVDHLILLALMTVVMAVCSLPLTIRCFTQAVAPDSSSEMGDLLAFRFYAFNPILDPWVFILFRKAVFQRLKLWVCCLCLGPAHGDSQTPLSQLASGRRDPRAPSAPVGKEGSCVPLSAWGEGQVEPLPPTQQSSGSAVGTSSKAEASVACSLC
Description: i) Inhibitory activity on binding of ^3 H-iloprost to PGl2 receptor on human blood platelet membrane fraction
50 mM Tris-HCl buffer (pH 7.4) containing 15 mM MgCl2, 5 mM EDTA and 10 nM [^3 H]-iloprost were used as reaction medium. To 0.2 ml of the reaction medium, human blood platelet membrane fraction (0.3 mg protein) was added with or without a test compound. The mixture was incubated at 24° C. for 30 min. After incubation, 4 ml of ice-cold 10 mM Tris-HCl buffer (pH 7.4) was added to the reaction mixture, and filtered through Whatman GF/B glass fiber filter, and washed 4 times with 4 ml of ice-cold 10 mM Tris-HCl buffer (pH 7.4) to separate bound and free [^3 H]-iloprost. After washing, the filter was dried and radioactivity was counted. Non-specific binding was obtained by performing parallel binding experiments in the presence of 10 μM non-labelled iloprost. Specific binding was calculated by subtracting the non-specific binding from the total binding.
The inhibitory effect of test compound was calculated from the following equation.
The percentage of inhibition (%)=100-(B1 /B0 ×100)
B1 : specific [^3 H]-iloprost binding in presence of test compound
B0 : specific [^3 H]-iloprost binding in absence of test compound

[1] = test system: human blood platelet aggregation; test: Inhibitory effect on human blood platelet aggregation; format: cell-based; conditions: human platelet-rich plasma (5×10^5 platelets/mm^3), compound 1 min prior to ADP (4 μm); read-out: IC50 (inhibition of platelet aggregation)
Description: ii) Inhibitory effect on human blood platelet aggregation
Platelet-rich plasma (PRP) was prepared from human blood (5×10^5 platelets/mm^3), and a test compound was added to PRP 1 min prior to the addition of ADP (4 μm). The aggregation was monitored using a platelet aggregometer (NBS HEMA TRACER 601, Niko Bioscience, Japan).

Row | SMILES | IC50 (PGl2 receptor) [nM] | IC50 [1] [nM]
1 | O=C(O)COc1cccc2c1CCCC2CCC(=O)NC(Cc1ccccc1)c1ccccc1 (centres unmarked) [3 (q), [1-(2-(1,2-Diphenylethyl)aminocarbonylethyl)-1,2,3,4-tetrahydronaphthalen-5-yl]oxyacetic acid] | 6800 | 
2 | O=C(O)COc1cccc2c1CCCC2CC(=O)NN(c1ccccc1)c1ccccc1 (centres unmarked) [3 (j), [1-((N,N-Diphenylamino)aminocarbonyimethyl)-1,2,3,4-tetrahydronaphthalen-5-yl]oxyacetic acid] | 7600 | 
3 | O=C(O)COc1cccc2c1CCCC2CCC(=O)NC(c1ccccc1)c1ccccc1 (centres unmarked) [3 (o), [1-(2-Diphenylmethylaminocarbonylethyl)-1,2,3,4-tetrahydronaphthalen-5-yl]oxyacetic acid] | 210 | 400
4 | O=C(O)COc1cccc2c1CCC(CCC(=O)NN=C(c1ccccc1)c1ccccc1)C2 (centres unmarked) [3 (aa), [2-(2-(Diphenylmethylideneamino)aminocarbonylethyl)-1,2,3,4-tetrahydronaphthalen-5-yl]oxyacetic acid] | 6000 | 
5 | O=C(O)COc1cccc2c1CCCC2CCCC(=O)NC(c1ccccc1)c1ccccc1 (centres unmarked) [3 (cc), [1-(3-Diphenylmethylaminocarbonylpropyl)-1,2,3,4-tetrahydronaphthalen-5-yl]oxyacetic acid] | 2700 | 
6 | O=C(O)COc1cccc2c1CCCC2CCC(=O)N(Cc1ccccc1)c1ccccc1 (centres unmarked) [3 (l), [1-(2-(N-Benzyl-N-phenylamino)carbonylethyl)-1,2,3,4-tetrahydronaphthalen-5-yl]oxyacetic acid] | 2900 | 
7 | O=C(O)COc1cccc2c1CCCC2CCC(=O)N(Cc1ccccc1)Cc1ccccc1 (centres unmarked) [3 (m), [1-(2-Dibenzylaminocarbonylethyl)-1,2,3,4-tetrahydronaphthalen-5-yl]oxyacetic acid] | 320 | 
8 | O=C(O)COc1cccc2c1CCCC2CCCC(=O)N(Cc1ccccc1)Cc1ccccc1 (centres unmarked) [3 (bb), [1-(3-(N,N-Dibenzylamino)carbonylpropyl)-1,2,3,4-tetrahydronaphthalen-5-yl]oxyacetic acid] | 4100 | 
9 | O=C(O)COc1cccc2c1CCCC2CCC(=O)NN(c1ccccc1)c1ccccc1 (centres unmarked) [3 (p), [1-(2-(N,N-Diphenylamino)aminocarbonylethyl)-1,2,3,4-tetrahydronaphthalen-5-yl]oxyacetic acid] | 9.4 | 110
10 | O=C(O)COc1cccc2c1CCCC2CCCC(=O)N(c1ccccc1)c1ccccc1 (centres unmarked) [3 (dd), [1-(3-(N,N-Diphenylamino)carbonylpropyl)-1,2,3,4-tetrahydronaphthalen-5-yl]oxyacetic acid] | 1700 | 5100

More lines, now with the values ahead:

Row | IC50 (PGl2 receptor) [nM] | IC50 [1] [nM] | SMILES
11 | 2300 |  | COC(=O)COc1cccc2c1CCC(CN(C)C(=O)CN(c1ccccc1)c1ccccc1)C2 (centres unmarked) [4 (a), Methyl [2-((N-methyl-N-(diphenylaminomethylcarbonyl)amino)methyl)-1,2,3,4-tetrahydronaphthalen-5-yl]oxyacetate]
12 | 20 | 620 | O=C(O)COc1cccc2c1CCC(CC(=O)NN(c1ccccc1)c1ccccc1)C2 (centres unmarked) [3 (w), [2-((N,N-Diphenylamino)aminocarbonylmethyl)-1,2,3,4-tetrahydronaphthalen-5-yl]oxyacetic acid]
13 | 680 | 8300 | O=C(O)COc1cccc2c1CCCC2CCC(=O)N(c1ccccc1)c1ccccc1 (centres unmarked) [Example 3, [1-(2-Diphenylaminocarbonylethyl)-1,2,3,4-tetrahydronaphthalen-5-yl]oxyacetic acid]
14 | 1800 | 7000 | O=C(O)COc1cccc2c1CCC(CCC(=O)NC(c1ccccc1)c1ccccc1)C2 (centres unmarked) [3 (y), [2-(2-(Diphenylmethylamino)carbonylethyl)-1,2,3,4-tetrahydronaphthalen-5-yl]oxyacetic acid]
15 | 1800 | 5600 | CCCN(CC1CCc2c(cccc2OCC(=O)O)C1)C(=O)CN(Cc1ccccc1)c1ccccc1 (centres unmarked) [8 (d), [2-((N-Propyl-N-((N'-benzyl-N'-phenylamino)methylcarbonyl)amino)methyl)-1,2,3,4-tetrahydronaphthalen-5-yl]oxyacetic acid]
16 | 3100 | 8000 | CN(CC1CCc2c(cccc2OCC(=O)O)C1)C(=O)CN(Cc1ccccc1)c1ccccc1 (centres unmarked) [8 (b), [2-((N-Methyl-N-((N'-benzyl-N'-phenylamino)methylcarbonyl)amino)methyl)-1,2,3,4-tetrahydronaphthalen-5-yl]oxyacetic acid]
17 | 180 | 2500 | CCCN(CC1CCc2c(cccc2OCC(=O)O)C1)C(=O)CN(c1ccccc1)c1ccccc1 (centres unmarked) [8 (c), [2-((N-Propyl-N-(diphenylaminomethylcarbonyl)amino)methyl)-1,2,3,4-tetrahydronaphthalen-5-yl]oxyacetic acid]
18 | 6600 |  | CN(CC1CCc2c(cccc2OCC(=O)O)C1)C(=O)NC(c1ccccc1)c1ccccc1 (centres unmarked) [Example 7, [2-(N-Methyl-N-(diphenylmethylaminocarbonyl)aminomethyl)-1,2,3,4-tetrahydronaphthalen-5-yl]oxyacetic acid]
19 | 8400 |  | CCCN(CCC1CCc2c(cccc2OCC(=O)O)C1)C(=O)CN(Cc1ccccc1)c1ccccc1 (centres unmarked) [10 (b), [2-(2-(N-Propyl-N-((N'-benzyl-N'-phenylamino)methylcarbonyl)amino)ethyl)-1,2,3,4-tetrahydronaphthalen-5-yl]oxyacetic acid]
20 | 100 | 2300 | O=C(O)COc1cccc2c1CCC(CCC(=O)NN(c1ccccc1)c1ccccc1)C2 (centres unmarked) [3 (z), [2-(2-(N,N-Diphenylamino)aminocarbonylethyl)-1,2,3,4-tetrahydronaphthalen-5-yl]oxyacetic acid]
21 | 2700 |  | O=C(O)COc1cccc2c1CCC(CCC(=O)N(Cc1ccccc1)Cc1ccccc1)C2 (centres unmarked) [3 (x), [2-(2-(N,N-Dibenzylamino)carbonylethyl)-1,2,3,4-tetrahydronaphthalen-5-yl]oxyacetic acid]
22 | 120 | 1000 | O=C(O)COc1cccc2c1CCC(CC(=O)NC(c1ccccc1)c1ccccc1)C2 (centres unmarked) [3 (v), [2-(Diphenylmethylaminocarbonylmethyl)-1,2,3,4-tetrahydronaphthalen-5-yl]oxyacetic acid]
23 | 480 |  | CCCN(CCC1CCc2c(cccc2OCC(=O)O)C1)C(=O)CN(c1ccccc1)c1ccccc1 (centres unmarked) [10 (a), [2-(2-(N-Propyl-N-(diphenylaminomethylcarbonyl)amino)ethyl)-1,2,3,4-tetrahydronaphthalen-5-yl]oxyacetic acid]
24 | 1300 |  | CN(CCC1CCc2c(cccc2OCC(=O)O)C1)C(=O)CN(c1ccccc1)c1ccccc1 (centres unmarked) [10 (c), [2-(2-(N-Methyl-N-(diphenylaminomethylcarbonyl)amino)ethyl)-1,2,3,4-tetrahydronaphthalen-5-yl]oxyacetic acid]
